According to ChEMBL document CHEMBL5584236, “Development of novel bisphenol derivatives with a membrane-targeting mechanism as potent gram-positive antibacterial agents” (Eur J Med Chem, 2024):
Active and inactive are the calls of the source. The rule behind the calls is not given here.

What was measured:
[1] = system: Staphylococcus aureus; experiment: Bactericidal activity against Staphylococcus aureus ATCC29213 assessed as log reduction in bacterial load at 8 times of MIC measured with in 4 hrs by time kill assay; type: functional
[2] = system: Staphylococcus aureus; experiment: Antibacterial activity against methicillin-resistant Staphylococcus aureus N315 assessed as reduction in bacterial growth incubated for 22 to 24 hrs in presence of MgCl2 by CLSI based broth microdilution method; type: functional; conditions: time 22-24 hrs
[3] = system: Klebsiella pneumoniae; experiment: Antibacterial activity against Klebsiella pneumoniae ATCC10031 assessed as reduction in microbial growth incubated for 22 to 24 hrs by CLSI based broth microdilution method; type: functional; conditions: time 22-24 hrs
[4] = system: Staphylococcus aureus; experiment: Bactericidal activity against methicillin-resistant Staphylococcus aureus NCTC10442 assessed as cell killing at 4 to 8 times of MIC measured up to 24 hrs by time kill assay; type: functional, organism-based
[5] = system: Staphylococcus aureus; experiment: Synergistic […] activity against methicillin-resistant Staphylococcus aureus NCTC10442 assessed as fractional inhibitory concentration index incubated for 22 to 24 hrs in presence of mupirocin by CLSI based broth microdilution method; type: functional; conditions: time 22-24 hrs
[6] = system: Acinetobacter baumannii; experiment: Synergistic […] activity against Acinetobacter baumannii ATCC17978 assessed as fractional inhibitory concentration index incubated for 22 to 24 hrs in presence of amikacin by CLSI based broth microdilution method; type: functional; conditions: time 22-24 hrs
[7] = system: Staphylococcus aureus; experiment: Synergistic […] activity against Staphylococcus aureus ATCC29213 assessed as fractional inhibitory concentration index incubated for 22 to 24 hrs in presence of vancomycin by CLSI based broth microdilution method; type: functional; conditions: time 22-24 hrs
[8] = system: Staphylococcus aureus; experiment: Antibacterial activity against Staphylococcus aureus ATCC29213 assessed as reduction in bacterial growth incubated for 22 to 24 hrs in presence of MgCl2 by CLSI based broth microdilution method; type: functional; conditions: time 22-24 hrs
[9] = system: Staphylococcus aureus; experiment: Synergistic […] activity against methicillin-resistant Staphylococcus aureus NCTC10442 assessed as fractional inhibitory concentration index incubated for 22 to 24 hrs in presence of vancomycin by CLSI based broth microdilution method; type: functional; conditions: time 22-24 hrs
[10] = system: Klebsiella pneumoniae; experiment: Synergistic […] activity against Klebsiella pneumoniae ATCC10031 assessed as fractional inhibitory concentration index incubated for 22 to 24 hrs in presence of levofloxacin by CLSI based broth microdilution method; type: functional; conditions: time 22-24 hrs
[11] = system: Staphylococcus aureus; experiment: Synergistic […] activity against Staphylococcus aureus ATCC29213 assessed as fractional inhibitory concentration index incubated for 22 to 24 hrs in presence of linezolid by CLSI based broth microdilution method; type: functional; conditions: time 22-24 hrs
[12] = system: Staphylococcus aureus; experiment: Antibacterial activity against methicillin-resistant Staphylococcus aureus N315 assessed as reduction in bacterial growth incubated for 22 to 24 hrs in presence of FeCl2 by CLSI based broth microdilution method; type: functional; conditions: time 22-24 hrs
[13] = system: Staphylococcus aureus; experiment: Antibacterial activity against methicillin-resistant Staphylococcus aureus NCTC10442 assessed as reduction in bacterial growth incubated for 22 to 24 hrs in presence of NaCl by CLSI based broth microdilution method; type: functional; conditions: time 22-24 hrs
[14] = system: Staphylococcus aureus; experiment: Disruption of cell membrane integrity in methicillin-resistant Staphylococcus aureus NCTC10442 assessed as increase in red fluorescence at 8 time of MIC measured after 15 mins by SYTO 9/PI staining based laser confocal microscopic analysis; type: functional, organism-based
[15] = Cytotoxicity against mouse NCTC clone 929 cells assessed reduction in cell viability incubated for 24 hrs by CCK-8 assay; type: toxicity, cell-based; conditions: NCTC clone 929 (L929) cells
[16] = system: Staphylococcus aureus; experiment: Antibacterial activity against methicillin-resistant Staphylococcus aureus NCTC10442 assessed as reduction in microbial growth incubated for 22 to 24 hrs by CLSI based broth microdilution method; type: functional; conditions: time 22-24 hrs
[17] = system: Staphylococcus aureus; experiment: Bactericidal activity against methicillin-resistant Staphylococcus aureus NCTC10442 assessed as cell killing at 8 times of MIC measured with in 1 hr by time kill assay relative to control; type: functional
[18] = system: Staphylococcus aureus; experiment: Synergistic […] activity against Staphylococcus aureus ATCC29213 assessed as fractional inhibitory concentration index incubated for 22 to 24 hrs in presence of teicoplanin by CLSI based broth microdilution method; type: functional; conditions: time 22-24 hrs
[19] = system: Staphylococcus aureus; experiment: Antibacterial activity against Staphylococcus aureus ATCC29213 infected in C57BL6 mouse corneal infection model assessed as bacterial killing at 0.5 % administered topically on corneas for four times in 3 days by MHA plate counting method relative to control; type: functional; conditions: route top, time 3 day
[20] = system: Staphylococcus aureus; experiment: Induction of membrane permeabilization in methicillin-resistant Staphylococcus aureus NCTC10442 assessed as increase in fluorescence intensity measured upto 60 mins by SYTOX green assay; type: functional, organism-based
[21] = system: Acinetobacter baumannii; experiment: Synergistic […] activity against Acinetobacter baumannii ATCC17978 assessed as fractional inhibitory concentration index incubated for 22 to 24 hrs in presence of levofloxacin by CLSI based broth microdilution method; type: functional; conditions: time 22-24 hrs
[22] = system: Staphylococcus aureus; experiment: Antibacterial activity against methicillin-resistant Staphylococcus aureus N315 assessed as reduction in bacterial growth incubated for 22 to 24 hrs in presence of FeCl3 by CLSI based broth microdilution method; type: functional; conditions: time 22-24 hrs
[23] = system: Acinetobacter baumannii; experiment: Antibacterial activity against Acinetobacter baumannii ATCC17978 assessed as reduction in microbial growth incubated for 22 to 24 hrs by CLSI based broth microdilution method; type: functional; conditions: time 22-24 hrs
[24] = system: Staphylococcus aureus; experiment: Antibacterial activity against Staphylococcus aureus ATCC29213 assessed as reduction in microbial growth incubated for 22 to 24 hrs by CLSI based broth microdilution method; type: functional; conditions: time 22-24 hrs
[25] = system: Staphylococcus aureus; experiment: Antibacterial activity against methicillin-resistant Staphylococcus aureus NCTC10442 assessed as reduction in bacterial growth incubated for 22 to 24 hrs in presence of KCl by CLSI based broth microdilution method; type: functional; conditions: time 22-24 hrs
[26] = system: Staphylococcus aureus; experiment: Synergistic […] activity against methicillin-resistant Staphylococcus aureus NCTC10442 assessed as fractional inhibitory concentration index incubated for 22 to 24 hrs in presence of fusidic acid by CLSI based broth microdilution method; type: functional; conditions: time 22-24 hrs
[27] = system: Staphylococcus aureus; experiment: Antibacterial activity against methicillin-resistant Staphylococcus aureus NCTC10442 assessed as reduction in bacterial growth incubated for 22 to 24 hrs in presence of ZnSO4.7H2O by CLSI based broth microdilution method; type: functional; conditions: time 22-24 hrs
[28] = system: Staphylococcus aureus; experiment: Synergistic […] activity against Staphylococcus aureus ATCC29213 assessed as fractional inhibitory concentration index incubated for 22 to 24 hrs in presence of tobramycin by CLSI based broth microdilution method; type: functional; conditions: time 22-24 hrs
[29] = Cytotoxicity against mouse NCTC clone 929 cells assessed as viable cells at 6.25 ug/ml incubated for 24 hrs by CCK-8 assay relative to control; type: toxicity, cell-based; conditions: NCTC clone 929 (L929) cells, at 6.25 µg/mL, read-out: Activity
[30] = system: Staphylococcus aureus; experiment: Antibacterial activity against methicillin-resistant Staphylococcus aureus N315 assessed as reduction in bacterial growth incubated for 22 to 24 hrs in presence of ZnSO4.7H2O by CLSI based broth microdilution method; type: functional; conditions: time 22-24 hrs
[31] = system: Acinetobacter baumannii; experiment: Antibacterial activity against Acinetobacter baumannii R28889 assessed as reduction in microbial growth incubated for 22 to 24 hrs by CLSI based broth microdilution method; type: functional; conditions: time 22-24 hrs
[32] = system: Escherichia coli; experiment: Antibacterial activity against Escherichia coli ATCC25922 assessed as reduction in microbial growth incubated for 22 to 24 hrs by CLSI based broth microdilution method; type: functional; conditions: time 22-24 hrs
[33] = Cytotoxicity against HEK293 cells assessed as viable cells at 100 ug/ml incubated for 24 hrs by CCK-8 assay relative to control; type: toxicity, cell-based; conditions: human, at 100 µg/mL, read-out: Activity

COC(=O)[C@H](CCCNC(=N)N)NC(=O)[C@H](CCCNC(=N)N)NC(=O)COc1ccc(S(=O)(=O)c2ccc(OC/C=C(/C)CCC=C(C)C)cc2)cc1
log(activity) [1]: 3
MIC [2]: 1.56 mg/L
MIC [3]: 6.25 mg/L
Activity [4]: Active
fractional inhibitory concentration index (FICI) [5]: 1
fractional inhibitory concentration index (FICI) [6]: 0.28
fractional inhibitory concentration index (FICI) [7]: 0.5
MIC [8]: 1.56 mg/L
fractional inhibitory concentration index (FICI) [9]: 0.5
fractional inhibitory concentration index (FICI) [10]: 0.56
fractional inhibitory concentration index (FICI) [11]: 0.28
MIC [12]: 1.56 mg/L
MIC [13]: 1.56 mg/L
Activity [14]: Active
CC50 at 24 h [15]: > 100 mg/L
MIC [16]: 0.78 mg/L
Activity [17]: 99.99%
fractional inhibitory concentration index (FICI) [18]: 0.31
Activity [19]: 99.99%
Activity [20]: Dose-Dependent Effect
fractional inhibitory concentration index (FICI) [21]: 0.25
MIC [22]: 1.56 mg/L
MIC [23]: 12.5 mg/L
MIC [24]: 1.56 mg/L
MIC [25]: 1.56 mg/L
fractional inhibitory concentration index (FICI) [26]: 0.5
MIC [27]: 1.56 mg/L
fractional inhibitory concentration index (FICI) [28]: 0.38
viability at 24 h, 6.25 ug/ml [29]: 91.5%
MIC [30]: 1.56 mg/L
MIC [31]: 6.25 mg/L
MIC [32]: 6.25 mg/L
viability at 24 h, 100 ug/ml [33]: 79.4%
